Test systems include HOP-62 NSCLC; A549 NSCLC; SF-539 CNS; EKVX NSCLC; SK-MEL-5 melanoma; MOLT-4 leukemia; UO-31 renal; CCRF-CEM leukemia; SW-620 colon.
Common to all, as to assay: NCI-60 cell line screen, 48 h

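Test compounds were applied to cells in 96-well plates for 48 hours at 5 doses. Here, GI50 denotes the concentration required for 50% inhibition of growth. Definition used: TGI = concentration required for complete inhibition of growth.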

As for `CC1=C(Cl)C=CP(=O)(OC(C)C)C1` (centres undefined), the TGI in the experiment on HOP-62 NSCLC, with A549 NSCLC, in the experiment on SF-539 CNS, in the experiment with EKVX NSCLC, in the experiment on SK-MEL-5 melanoma and in the experiment with MOLT-4 leukemia was above 100 µM each time. The TGI in the experiment on UO-31 renal, in the experiment on CCRF-CEM leukemia and in the experiment with SW-620 colon was above 100 µM in each case.

Consider `C=C1C2CC(OC(C)=O)C3(C)C(c4ccoc4)OC(=O)[C@@H](O)[C@]13OC1C[C@H](OC(C)=O)C(C)(C)[C@H](CC(=O)OC)[C@]12C` (some centres undefined), for which the TGI in the experiment on A549 NSCLC, in the experiment on SF-539 CNS, in the experiment with EKVX NSCLC, in the experiment on SK-MEL-5 melanoma, in the experiment on MOLT-4 leukemia and in the experiment on UO-31 renal was above 100 µM each time. Further, the TGI in the experiment with CCRF-CEM leukemia and in the experiment with SW-620 colon was above 100 µM each time.

For `COc1ccc2c(c1)[n+]([O-])c(-c1ccc(C)cc1)c(N)[n+]2[O-]`, the TGI with HOP-62 NSCLC, with A549 NSCLC, in the experiment on SF-539 CNS, in the experiment with EKVX NSCLC, in the experiment on SK-MEL-5 melanoma and with UO-31 renal was above 100 µM each time. In addition, the TGI in the experiment on SW-620 colon is above 100 µM.

Regarding `C#CC1(O)c2ccccc2C(=O)c2ccccc21`, the TGI in the experiment on HOP-62 NSCLC, with A549 NSCLC, with SF-539 CNS, in the experiment on EKVX NSCLC, in the experiment on MOLT-4 leukemia and with CCRF-CEM leukemia was above 100 µM throughout. This molecule also displayed a TGI in the experiment with SW-620 colon above 100 µM.

For `COc1ccc(-c2cc(-c3cc(Cl)cc(Br)c3O)[nH]c(=O)n2)cc1`, the TGI in the experiment with HOP-62 NSCLC was determined as 28.1 µM; in the experiment with A549 NSCLC, 33.7 µM; in the experiment on SF-539 CNS, 28.8 µM; with EKVX NSCLC it was 27.3 µM; in the experiment on MOLT-4 leukemia, 35.3 µM; in the experiment on UO-31 renal, 34.7 µM. Besides, the TGI with CCRF-CEM leukemia was determined as 70.7 µM; in the experiment with SW-620 colon it was 46.9 µM.

As for `Cc1ccc(NC(=S)SCCC(=O)O)cc1`, the TGI in the experiment on HOP-62 NSCLC, in the experiment on A549 NSCLC, with SF-539 CNS, with EKVX NSCLC, in the experiment on MOLT-4 leukemia and with UO-31 renal was above 100 µM throughout. The TGI in the experiment on CCRF-CEM leukemia and with SW-620 colon was above 100 µM throughout.

In the case of `CC(=O)[CH-]C(=O)c1ccccc1.CC(=O)[CH-]C(=O)c1ccccc1.Cl.[O-]c1ccccn1.[O-]c1ccccn1.[Ti+4]`, the GI50 in the experiment with HOP-62 NSCLC, in the experiment with A549 NSCLC, in the experiment on SF-539 CNS, with EKVX NSCLC, in the experiment on SK-MEL-5 melanoma and in the experiment on MOLT-4 leukemia was above 100 µM throughout. Further, the GI50 in the experiment with UO-31 renal and in the experiment on SW-620 colon was above 100 µM each time. Besides, the TGI with HOP-62 NSCLC, with A549 NSCLC, with SF-539 CNS, in the experiment on EKVX NSCLC, in the experiment on SK-MEL-5 melanoma and with MOLT-4 leukemia was above 100 µM throughout. For the same molecule, the TGI with UO-31 renal and in the experiment on SW-620 colon was above 100 µM each time.

With `CC12CO[C@@](C)(CC(S(=O)(=O)c3ccccc3)C1)O2` (some centres undefined), the TGI with HOP-62 NSCLC, in the experiment with A549 NSCLC, in the experiment with SF-539 CNS, in the experiment on EKVX NSCLC, with SK-MEL-5 melanoma and in the experiment on MOLT-4 leukemia was above 100 µM each time. Also, the TGI with UO-31 renal, in the experiment with CCRF-CEM leukemia and in the experiment with SW-620 colon was above 100 µM in each case.

On to `COC(=O)C1C=NNC1C(=O)OC` (centres undefined), for which the TGI in the experiment with HOP-62 NSCLC, in the experiment on A549 NSCLC, in the experiment with SF-539 CNS, in the experiment with EKVX NSCLC, with SK-MEL-5 melanoma and with MOLT-4 leukemia was above 100 µM in each case. The TGI with UO-31 renal, in the experiment with CCRF-CEM leukemia and in the experiment with SW-620 colon was above 100 µM each time.

Consider `O=S1(=O)CCCS(=O)(=O)C(c2ccccc2)=C1c1ccccc1`, for which the TGI was 96.8 µM in the experiment with HOP-62 NSCLC; above 100 µM in the experiment on A549 NSCLC; above 100 µM in the experiment on SF-539 CNS; above 100 µM in the experiment on EKVX NSCLC; above 100 µM in the experiment on SK-MEL-5 melanoma; above 100 µM in the experiment with MOLT-4 leukemia. For the same molecule, the TGI in the experiment with UO-31 renal, in the experiment with CCRF-CEM leukemia and in the experiment with SW-620 colon was above 100 µM in each case.

Take `CCN(CC)C(=O)N1CCN(C=S)CC1`: the TGI in the experiment with HOP-62 NSCLC, in the experiment on A549 NSCLC, in the experiment on SF-539 CNS, in the experiment with EKVX NSCLC, in the experiment with SK-MEL-5 melanoma and in the experiment on MOLT-4 leukemia was above 100 µM in each case. The TGI with UO-31 renal, with CCRF-CEM leukemia and with SW-620 colon was above 100 µM each time.

Consider `Cc1ccc(-c2cc(=O)c3cc(C)c(C)c(C(=O)O)c3o2)cc1N`, for which the TGI in the experiment on A549 NSCLC, in the experiment on SF-539 CNS, in the experiment with EKVX NSCLC, in the experiment with SK-MEL-5 melanoma, in the experiment on MOLT-4 leukemia and in the experiment on UO-31 renal was above 100 µM throughout. In addition, the TGI in the experiment with CCRF-CEM leukemia and with SW-620 colon was above 100 µM throughout.

Take `CCOC(=N)CC(=O)Nc1cccc(Cl)c1`: the TGI in the experiment with HOP-62 NSCLC, in the experiment on A549 NSCLC, with SF-539 CNS, with EKVX NSCLC, in the experiment on SK-MEL-5 melanoma and with MOLT-4 leukemia was above 100 µM throughout. The TGI in the experiment on UO-31 renal, with CCRF-CEM leukemia and with SW-620 colon was above 100 µM throughout.

Regarding `O=C(CC1(O)C(=O)Nc2ccccc21)c1ccc(O)cc1` (centres undefined), the TGI in the experiment on HOP-62 NSCLC, with A549 NSCLC, in the experiment with SF-539 CNS, in the experiment with EKVX NSCLC, with SK-MEL-5 melanoma and in the experiment with MOLT-4 leukemia was above 100 µM in each case. The TGI with UO-31 renal, with CCRF-CEM leukemia and in the experiment on SW-620 colon was above 100 µM throughout.

As to `Clc1ccc2nc(-c3ccccc3)nc(Cl)c2c1`, the TGI is 79.9 µM with HOP-62 NSCLC; above 100 µM in the experiment with A549 NSCLC; above 100 µM in the experiment on SF-539 CNS; above 100 µM in the experiment with EKVX NSCLC; above 100 µM in the experiment with SK-MEL-5 melanoma; above 100 µM in the experiment on MOLT-4 leukemia. In addition, the TGI in the experiment with UO-31 renal, with CCRF-CEM leukemia and in the experiment on SW-620 colon was above 100 µM in each case.

As to `CC(CNCCCNCCNCCCNCO)[N+](=O)[O-]` (centres undefined), the TGI in the experiment on HOP-62 NSCLC was above 100 µM; in the experiment on A549 NSCLC it was 57 µM; with SF-539 CNS it was 29.2 µM; in the experiment on EKVX NSCLC, 29.9 µM; in the experiment with SK-MEL-5 melanoma, 29.9 µM; in the experiment with MOLT-4 leukemia, 30.4 µM. Also, the TGI stood at 32.3 µM in the experiment with UO-31 renal, 11.5 µM in the experiment with CCRF-CEM leukemia and 12.2 µM in the experiment on SW-620 colon.

For the molecule `O=S(=O)([O-])[O-].[Cl-].[NH2-].[NH2-].[NH2-].[NH2-].[Ru+3].c1ccncc1`, the TGI in the experiment on HOP-62 NSCLC, in the experiment on A549 NSCLC, in the experiment with SF-539 CNS, in the experiment with EKVX NSCLC, with SK-MEL-5 melanoma and with MOLT-4 leukemia was above 100 µM in each case. The TGI in the experiment on UO-31 renal, in the experiment on CCRF-CEM leukemia and with SW-620 colon was above 100 µM throughout.

On to `Cc1cccc(N2C(=O)C(=O)C(c3nc4ccccc4s3)/C(=N/NC(=S)NN)C2=O)c1C` (centres undefined), for which the TGI with HOP-62 NSCLC, in the experiment with SF-539 CNS, in the experiment on EKVX NSCLC, in the experiment with SK-MEL-5 melanoma, in the experiment on MOLT-4 leukemia and in the experiment with UO-31 renal was above 100 µM throughout. In the experiment on SW-620 colon, this molecule returned a TGI above 100 µM.

Take `CCOC(=O)C1=C(C)N(NC(N)=O)C(C)(O)C12CCOC2=O` (centres undefined): the TGI in the experiment on HOP-62 NSCLC, in the experiment on A549 NSCLC, in the experiment with SF-539 CNS, in the experiment with EKVX NSCLC, in the experiment on SK-MEL-5 melanoma and in the experiment with MOLT-4 leukemia was above 100 µM each time. The TGI in the experiment with UO-31 renal and with SW-620 colon was above 100 µM throughout.

Regarding `COc1cc(-c2cc(/C=C/C(=O)c3ccc(Cl)c(Cl)c3)[nH]n2)cc(OC)c1OC`, the GI50 in the experiment on HOP-62 NSCLC was 1.72 µM; with A549 NSCLC, 18.7 µM; in the experiment on SF-539 CNS, 4.31 µM; in the experiment on SK-MEL-5 melanoma, 13.4 µM; in the experiment with MOLT-4 leukemia it was 4.38 µM; in the experiment with UO-31 renal, 5.73 µM. The GI50 is 2.15 µM with CCRF-CEM leukemia and 8.63 µM in the experiment on SW-620 colon. For the same molecule, the TGI was 7.66 µM in the experiment with HOP-62 NSCLC; above 100 µM in the experiment on A549 NSCLC; 18.7 µM with SF-539 CNS; 46.9 µM in the experiment on SK-MEL-5 melanoma; 40.6 µM in the experiment on MOLT-4 leukemia; above 100 µM with UO-31 renal. For the same molecule, the TGI with CCRF-CEM leukemia is 23.5 µM; with SW-620 colon, 79.6 µM.

Consider `O=[N+]([O-])c1cc(Cl)ccc1OCc1ccccc1`, for which the TGI in the experiment with HOP-62 NSCLC was above 100 µM; with A549 NSCLC it was above 100 µM; in the experiment with SF-539 CNS, above 100 µM; in the experiment with EKVX NSCLC it was above 100 µM; in the experiment on SK-MEL-5 melanoma, 70.5 µM; in the experiment on MOLT-4 leukemia, above 100 µM. For the same molecule, the TGI in the experiment with CCRF-CEM leukemia and in the experiment with SW-620 colon was above 100 µM each time.

In the case of `COc1cc2c(cc1OC)NC(=O)NC(Cc1ccc3c(c1)OCO3)CC2` (centres undefined), the TGI with HOP-62 NSCLC, in the experiment with A549 NSCLC, in the experiment with EKVX NSCLC, in the experiment with SK-MEL-5 melanoma, in the experiment on MOLT-4 leukemia and in the experiment on UO-31 renal was above 100 µM in each case. Moreover, the TGI in the experiment with CCRF-CEM leukemia and with SW-620 colon was above 100 µM throughout.

The values are drawn from PubChem BioAssay (NCI).
